From patent US20240360194A1, “New Peptides as Potent and Selective GIP Receptor Agonists” (Sanofi, priority 2021, published 2024)
Numbered stars: 1 amine (or outer) side, 2 acyl side, 3 side chain; on linkers, the order of the positions; unused ones are H or OH. Square brackets hold non-standard residues; d marks the D form. Side chains are listed from the residue outwards. Peptide text beside a SMILES is read from it. * marks the point of attachment. C18 diacid = O=C(O)CCCCCCCCCCCCCCCCC(=O)*; γGlu = O=C(O)[C@H](CCC(=O)[*:2])N[*:1]; AEEA = NCCOCCOCC(=O)O; Aib = CC(C)(N)C(=O)O

Assays:
[1] = biological target: human GLP-1 receptor (hGLP-1R) (Homo sapiens, UniProt P43220); experiment: In vitro cellular cAMP assay for GLP-1 receptor efficacy (HEK-293 cell line over-expressing receptor); type: cell-based; conditions: HEK-293, 0.1% BSA
Chain of human GLP-1 receptor (hGLP-1R) (P43220 24-463): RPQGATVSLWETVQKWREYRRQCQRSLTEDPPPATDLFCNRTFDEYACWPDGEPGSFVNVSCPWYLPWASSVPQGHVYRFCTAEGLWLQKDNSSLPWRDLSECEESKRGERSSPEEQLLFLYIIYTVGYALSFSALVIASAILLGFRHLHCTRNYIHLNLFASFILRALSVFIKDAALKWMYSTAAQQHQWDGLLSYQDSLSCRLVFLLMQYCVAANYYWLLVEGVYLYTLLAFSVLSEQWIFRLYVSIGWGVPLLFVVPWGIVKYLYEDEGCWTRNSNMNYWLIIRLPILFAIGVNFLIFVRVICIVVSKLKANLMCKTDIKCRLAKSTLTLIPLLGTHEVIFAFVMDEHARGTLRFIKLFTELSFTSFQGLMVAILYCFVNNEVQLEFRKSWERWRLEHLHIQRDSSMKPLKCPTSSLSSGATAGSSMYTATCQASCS

[2] = Pharmacokinetic evaluation in rats; type: in vivo; conditions: male, SD, rat, in vivo
Procedure: (§1) Compounds were administered in a suitable buffer system, e.g. PBS buffer solution at pH7.4 or DPBS solution at concentrations of 0.05, 0.1, 0.5 or 1 mg/ml depending on dose, species and administration volume. Male SD rats were dosed 0.25 mg/kg, 0.5 mg/kg or 1 mg/kg intravenously (i.v.) or subcutaneously (s.c.). Blood samples were collected after 0.08, 0.25, 0.5, 1, 2, 4, 8, 24, 32, and 48 h post i.v. application and 0.25, 0.5, 1, 2, 4, 8, 24, 32, and 48 h post s.c. application, respectively. Plasma samples were analysed after protein precipitation via liquid chromatography mass spectrometry (LC/MS). PK parameters and half-life were calculated using Phoenix-WinNonlin 8.1 using a non-compartmental model and linear trapezoidal interpolation calculation. Pharmacokinetic profiles were determined as described in Methods.

human GIP receptor = biological target: T1, human GIP receptor (Homo sapiens, UniProt P48546); experiment: In vitro cellular cAMP assay for GIP receptor efficacy (human adipocytes); type: cell-based; conditions: for EC50: read-out: hGIPR EC50; for Emax: read-out: hGIPR Emax
T1 construct: human adipocytes endogenously expressing the human GIP receptor; host or cells: human preadipocytes (Lonza) differentiated to adipocytes
T1 sequence (P48546 22-466): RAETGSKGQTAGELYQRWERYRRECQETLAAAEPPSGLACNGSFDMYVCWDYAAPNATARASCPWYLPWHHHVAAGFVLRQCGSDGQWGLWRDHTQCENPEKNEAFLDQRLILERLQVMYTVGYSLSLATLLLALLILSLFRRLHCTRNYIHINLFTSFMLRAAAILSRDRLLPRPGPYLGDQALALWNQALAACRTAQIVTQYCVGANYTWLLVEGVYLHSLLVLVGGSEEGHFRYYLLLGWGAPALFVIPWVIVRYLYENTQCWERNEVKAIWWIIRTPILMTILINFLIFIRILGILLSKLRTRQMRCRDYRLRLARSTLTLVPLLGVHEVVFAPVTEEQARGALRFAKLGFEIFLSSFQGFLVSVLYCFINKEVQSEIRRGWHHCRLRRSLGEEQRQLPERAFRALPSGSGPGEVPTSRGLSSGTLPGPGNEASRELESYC
Procedure, shortened: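 Human preadipocytes expanded, then differentiated 6 days (insulin, dexamethasone, PPARγ agonist, 200 μM IBMX, L-thyroxine) before plating at 5000 cells/well. Test compound applied 30 min at room temperature; cAMP measured by HTRF after 1 h with lysis-buffer reagents, read as 665/620 nm fluorescence ratio.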

[3] = Pharmacokinetic evaluation in mice; type: in vivo, female C57Bl/6 mice; conditions: female, C57Bl/6, mouse, in vivo
Procedure: as §1, with “Female C57Bl/6 mice” for “Male SD rats”, “The mice were sacrificed, and blood” for “Blood”

[4] = biological target: T2, human GIP receptor (hGIPR) (Homo sapiens, UniProt P48546); experiment: In vitro cellular cAMP assay for GIP receptor efficacy (HEK-293 cell line over-expressing receptor); type: cell-based
T2 sequence (P48546 22-466): T1 sequence (P48546 22-466)

[5] = EC50 hGIPR 0.1% BSA, HEK-293, 0.1% BSA

| SMILES | EC50 [1] [nM] | AUC(0-t) ([2]; iv, 0.25 mg/kg) [ng·h/mL] | Cmax ([2]; iv, 0.25 mg/kg) [ng/mL] | clearance ([2]; iv, 0.25 mg/kg) [mL/min/kg] | half-life ([2]; iv, 0.25 mg/kg) [h] | AUC(0-t) ([2]; sc, 0.5 mg/kg) [ng·h/mL] | Cmax ([2]; sc, 0.5 mg/kg) [ng/mL] | half-life ([2]; sc, 0.5 mg/kg) [h] | EC50 (human GIP receptor) [nM] | Emax (human GIP receptor) [%] | AUC(0-t) ([3]; iv, 0.25 mg/kg) [ng·h/mL] | Cmax ([3]; iv, 0.25 mg/kg) [ng/mL] | clearance ([3]; iv, 0.25 mg/kg) [mL/min/kg] | half-life ([3]; iv, 0.25 mg/kg) [h] | AUC(0-t) ([3]; sc, 0.5 mg/kg) [ng·h/mL] | Cmax ([3]; sc, 0.5 mg/kg) [ng/mL] | half-life ([3]; sc, 0.5 mg/kg) [h] | EC50 [4, 5] [nM] | other results |
| --- | --- | --- | --- | --- | --- | --- | --- | --- | --- | --- | --- | --- | --- | --- | --- | --- | --- | --- | --- |
| CC[C@H](C)[C@H](NC(=O)[C@H](Cc1ccccc1)NC(=O)[C@H](CCC(=O)O)NC(=O)[C@H](CCC(=O)O)NC(=O)[C@H](CCC(N)=O)NC(=O)[C@H](Cc1c[nH]cn1)NC(=O)[C@@H](NC(=O)[C@H](CCCNC(=N)N)NC(=O)[C@H](CC(=O)O)NC(=O)[C@H](CCCCNC(=O)COCCOCCNC(=O)COCCOCCNC(=O)CC[C@H](NC(=O)CCCCCCCCCCCCCCCCC(=O)O)C(=O)O)NC(=O)C(C)(C)NC(=O)[C@@H](NC(=O)[C@H](CO)NC(=O)[C@H](CC(C)C)NC(=O)[C@H](CC(=O)O)NC(=O)[C@H](CO)NC(=O)[C@@H](NC(=O)[C@H](Cc1ccccc1)NC(=O)[C@@H](NC(=O)CNC(=O)[C@H](CCC(=O)O)NC(=O)C(C)(C)NC(=O)[C@@H](N)Cc1ccc(O)cc1)[C@@H](C)O)[C@@H](C)CC)[C@@H](C)CC)[C@@H](C)CC)C(=O)N[C@@H](CCC(N)=O)C(=O)N[C@@H](Cc1c[nH]c2ccccc12)C(=O)N[C@@H](CC(C)C)C(=O)N[C@@H](CC(C)C)C(=O)N[C@@H](C)C(=O)N[C@@H](CCC(N)=O)C(=O)NCC(=O)N1CCC[C@H]1C(=O)N[C@@H](CO)C(=O)N[C@@H](CO)C(=O)NCC(=O)N[C@@H](C)C(=O)N1CCC[C@H]1C(=O)N1CCC[C@H]1C(=O)N1CCC[C@H]1C(=O)N[C@@H](CO)C(N)=O [SEQ ID NO: 35, H2N-Y-Aib-E-G-T-F-I-S-D-L-S-I-Aib-K[{AEEA}2-gGlu-C18OH]-DRIHQEEFIQWLLAQGPSSGAPPPS-NH2] (H-Y[Aib]EGTFISDLSI[Aib]K([AEEA-AEEA-γGlu-C18 diacid])DRIHQEEFIQWLLAQGPSSGAPPPS-NH2) | > 10 | 41600 | 5380 | 0.0918 | 14.5 | 49900 | 2010 | 14.3 | 1.3 | 120 | 12800 | 1850 | 0.325 | 6.19 | 21800 | 1400 | 6.97 |  | F ([2]; sc, 0.5 mg/kg): 73%; bioavailability ([3]; sc, 0.5 mg/kg): 86% |
| CC[C@H](C)[C@H](NC(=O)[C@H](CCC(=O)O)NC(=O)[C@H](CCC(=O)O)NC(=O)[C@H](CCCCNC(=O)COCCOCCNC(=O)COCCOCCNC(=O)CC[C@H](NC(=O)CCCCCCCCCCCCCCCCC(=O)O)C(=O)O)NC(=O)C(C)(C)NC(=O)[C@@H](NC(=O)[C@H](CO)NC(=O)[C@H](CC(C)C)NC(=O)[C@H](CC(=O)O)NC(=O)[C@H](CO)NC(=O)[C@@H](NC(=O)[C@H](Cc1ccccc1)NC(=O)[C@@H](NC(=O)CNC(=O)[C@H](CCC(=O)O)NC(=O)C(C)(C)NC(=O)[C@@H](N)Cc1ccc(O)cc1)[C@@H](C)O)[C@@H](C)CC)[C@@H](C)CC)C(=O)N[C@@H](Cc1c[nH]cn1)C(=O)N[C@@H](CCC(N)=O)C(=O)NC(C)(C)C(=O)N[C@@H](CCC(=O)O)C(=O)N[C@@H](Cc1ccccc1)C(=O)N[C@H](C(=O)N[C@@H](CCC(=O)O)C(=O)N[C@@H](Cc1c[nH]c2ccccc12)C(=O)N[C@@H](CC(C)C)C(=O)N[C@@H](CC(C)C)C(=O)N[C@@H](C)C(=O)N[C@@H](CCC(N)=O)C(=O)NCC(=O)N1CCC[C@H]1C(=O)N[C@@H](CO)C(=O)N[C@@H](CO)C(=O)NCC(=O)N[C@@H](C)C(=O)N1CCC[C@H]1C(=O)N1CCC[C@H]1C(=O)N1CCC[C@H]1C(=O)N[C@@H](CO)C(N)=O)[C@@H](C)CC [SEQ ID NO: 19, H2N-Y-Aib-E-G-T-F-I-S-D-L-S-I-Aib-K[{AEEA}2-gGlu-C18OH]-E-E-I-H-Q-Aib-E-F-I-E-W-L-L-A-Q-G-P-S-S-G-A-P-P-P-S-NH2] (H-Y[Aib]EGTFISDLSI[Aib]K([AEEA-AEEA-γGlu-C18 diacid])EEIHQ[Aib]EFIEWLLAQGPSSGAPPPS-NH2) | > 10 | 194000 | 12800 | 0.0182 | 19.6 | 189000 | 5590 | 20.1 |  | 94 | 20800 | 3750 | 0.197 | 8.68 | 41100 | 2420 | 10.3 |  | bioavailability ([2]; sc, 0.5 mg/kg): 54%; F ([3]; sc, 0.5 mg/kg): 101% |
| CC[C@H](C)[C@H](NC(=O)[C@H](Cc1ccccc1)NC(=O)[C@H](CCC(=O)O)NC(=O)[C@H](CCC(=O)O)NC(=O)[C@H](CCC(N)=O)NC(=O)[C@H](Cc1c[nH]cn1)NC(=O)[C@@H](NC(=O)[C@H](CCCNC(=N)N)NC(=O)[C@H](CC(=O)O)NC(=O)[C@H](CCCCNC(=O)COCCOCCNC(=O)COCCOCCNC(=O)CC[C@H](NC(=O)CCCCCCCCCCCCCCCCC(=O)O)C(=O)O)NC(=O)C(C)(C)NC(=O)[C@@H](NC(=O)[C@H](CO)NC(=O)[C@H](CC(C)C)NC(=O)[C@H](CC(=O)O)NC(=O)[C@H](CO)NC(=O)[C@@H](NC(=O)[C@H](Cc1ccccc1)NC(=O)[C@@H](NC(=O)CNC(=O)[C@H](CCC(=O)O)NC(=O)C(C)(C)NC(=O)[C@@H](N)Cc1ccc(O)cc1)[C@@H](C)O)[C@@H](C)CC)[C@@H](C)CC)[C@@H](C)CC)C(=O)N[C@@H](CCC(=O)O)C(=O)N[C@@H](Cc1c[nH]c2ccccc12)C(=O)N[C@@H](CC(C)C)C(=O)N[C@@H](CC(C)C)C(=O)N[C@@H](C)C(=O)N[C@@H](CCC(N)=O)C(=O)N[C@@H](CCCNC(=N)N)C(=O)NCC(N)=O [SEQ ID NO: 4, H2N-Y-Aib-E-G-T-F-I-S-D-L-S-I-Aib-K[{AEEA}2-gGlu-C18OH]-D-R-I-H-Q-E-E-F-I-E-W-L-L-A-Q-R-G-NH2] | > 1 |  |  |  |  |  |  |  | 2.4 | 134 |  |  |  |  |  |  |  | 0.0208 |  |
| CC[C@H](C)[C@H](NC(=O)[C@H](CCCNC(=N)N)NC(=O)[C@H](CC(=O)O)NC(=O)[C@H](CCCCNC(=O)COCCOCCNC(=O)COCCOCCNC(=O)CC[C@H](NC(=O)CCCCCCCCCCCCCCCCC(=O)O)C(=O)O)NC(=O)C(C)(C)NC(=O)[C@@H](NC(=O)[C@H](CO)NC(=O)[C@H](CC(C)C)NC(=O)[C@H](CC(=O)O)NC(=O)[C@H](CO)NC(=O)[C@@H](NC(=O)[C@H](Cc1ccccc1)NC(=O)[C@@H](NC(=O)CNC(=O)[C@H](CCC(=O)O)NC(=O)C(C)(C)NC(=O)[C@@H](N)Cc1ccc(O)cc1)[C@@H](C)O)[C@@H](C)CC)[C@@H](C)CC)C(=O)N[C@@H](Cc1c[nH]cn1)C(=O)N[C@@H](CCC(N)=O)C(=O)NC(C)(C)C(=O)N[C@@H](CCC(=O)O)C(=O)N[C@@H](Cc1ccccc1)C(=O)N[C@H](C(=O)N[C@@H](CCC(=O)O)C(=O)N[C@@H](Cc1c[nH]c2ccccc12)C(=O)N[C@@H](CC(C)C)C(=O)N[C@@H](CC(C)C)C(=O)N[C@@H](C)C(=O)N[C@@H](CCC(N)=O)C(=O)N[C@@H](CCC(=O)O)C(=O)NCC(N)=O)[C@@H](C)CC [SEQ ID NO: 12, H2N-Y-Aib-E-G-T-F-I-S-D-L-S-I-Aib-K[{AEEA}2-gGlu-C18OH]-D-R-I-H-Q-Aib-E-F-I-E-W-L-L-A-Q-E-G-NH2] | > 10 |  |  |  |  |  |  |  | 0.5 | 112 |  |  |  |  |  |  |  | 0.0267 | EC50 ([4]; EC50 hGIPR 0.1% HSA, HEK-293, 0.1% HSA): 0.0011 nM |
